Results: the CheMixHub viscosity set

Assay: xn = mol fraction of the nth substance listed
Conditions: 101 kPa

C[N+]1(CC2CO2)CCCC1=O.[Cl-] (centres undefined) + CCC(=O)O
viscosity [mPa·s]
Conditions | 293.15 K | 298.15 K | 303.15 K | 308.15 K | 313.15 K
x1 = 0.0325 | 1.305 | 1.209 | 1.12 | 1.041 | 0.971
x1 = 0.0638 | 1.577 | 1.45 | 1.335 | 1.233 | 1.144
x1 = 0.1089 | 1.836 | 1.673 | 1.533 | 1.41 | 1.301
x1 = 0.205 | 2.333 | 2.104 | 1.909 | 1.738 | 1.592
x1 = 0.3036 | 2.544 | 2.285 | 2.064 | 1.876 | 1.712
x1 = 0.4076 | 2.537 | 2.278 | 2.059 | 1.87 | 1.707
x1 = 0.5049 | 2.288 | 2.069 | 1.882 | 1.718 | 1.578
x1 = 0.6079 | 2.088 | 1.895 | 1.729 | 1.586 | 1.462
x1 = 0.7037 | 1.935 | 1.763 | 1.613 | 1.485 | 1.372
x1 = 0.8065 | 1.808 | 1.65 | 1.516 | 1.399 | 1.296
x1 = 0.9028 | 1.643 | 1.507 | 1.39 | 1.286 | 1.194

Oc1cccc(Cl)c1 + CCCCCOC(C)=O
Conditions | viscosity [mPa·s]
298.15 K, x1 = 0.5 | 1.244

C[N+](C)(C)C.[OH-] + O
viscosity [mPa·s]
Conditions | x1 = 0.00504 | x1 = 0.0103 | x1 = 0.02149 | x1 = 0.0337 | x1 = 0.04708 | x1 = 0.06181 | x1 = 0.07809
298.15 K | 0.9677 | 1.119 | 1.278 | 1.627 | 1.978 | 3.087 | 4.216
303.15 K | 0.8674 | 1.007 | 1.148 | 1.39 | 1.751 | 2.66 | 3.571
313.15 K | 0.7118 | 0.818 | 0.9314 | 1.158 | 1.399 | 2.031 | 2.665
323.15 K | 0.5982 | 0.678 | 0.7738 | 0.971 | 1.148 | 1.587 | 2.067
